{
  "source": "patent US8597660B2",
  "about": "“Therapeutic approach to neurodegenerative disorders using a TFP5-peptide” (The United States of America, as represented by the …, priority 2010, dated 2013)",
  "key": {"tau phosphorylation": {"system": "tau phosphorylation", "assay": "Aβ-induced tau phosphorylation in cortical neurons, Western blot", "assay_type": "cell-based, rat", "settings": "Aβ 6 h; P5 infection or roscovitine", "experimental": "Primary cultures of rat cortical neurons were prepared from E-18 rat fetuses as described previously (Zheng et al., J Biol Chem 278(26), 24026-24032, 2003). After 7 days, cells were infected independently or co-infected with empty vector (EV), the constructs of P5, P25, P35, wild-type Cdk5 and dominant negative Cdk5 (changing Lys33 to Thr33) using the Adenoviral vector (pAdTrack-CMV) packaging system as described above. […] The cells were fixed for immunocytochemistry analyses (ICC) or lysed with lysis buffer for immunoprecipitation and Western blot analyses. Cortical neuron cultures were prepared and plated on the cover slips as described. Human embryo kidney cells (HEK293) were grown as described previously (Zheng et al., Eur J Biochem 269(18), 4427-4434, 2002). In these studies HEK293 cells on day 1, or neurons on day 5, were transfected with or without Myc-P5-GFP using Lipofectamine 2000 following the manufacturer's instructions.\n(§1) Western blot analysis was performed as previously described (Zheng et al., Eur J Biochem 269(18), 4427-4434, 2002). In brief, an equal amount of total protein (20 μg/lane) was resolved on a 4-20% SDS polyacrylamide gel and blotted onto a polyvinylidene difluoride membrane. This membrane was incubated in blocking buffer containing 20 mM Tris-HCl (pH 7.4), 150 mM NaCl, and 0.1% (vol/vol) Tween 20 (TTBS) plus 5% dry milk (w/v) for 1 hour at room temperature followed by incubation overnight at 4° C. in primary antibodies (see antibodies). The membranes were then washed four times in TTBS (5 minutes/each) followed by incubation in secondary antibody (goat-antimouse or goat anti-rabbit IgG (H+L)-horseradish peroxidase (HRP) conjugate at a dilution of 1:3000) for 1 hour at room temperature. Western blots were analyzed using the Amersham Enhanced Chemiluminescence (ECL) kit following the manufacturer's instructions (GE Healthcare, Piscataway, N.J.).\nAmyloid plaques and neurofibrillary tangles, pathological hallmarks of several neurodegenerative disorders, are linked to deregulated Cdk5 and neuronal death. According to one model, β amyloid, being toxic, may evoke abnormal calcium influx into neurons which activates calpains. […] Hyperactivation of Cdk5, leads to the aberrant phosphorylation of tau and neurofilaments in a number of neurodegenerative diseases including AD and ALS. For example, primary cortical neurons, when treated with Aβ1-42 are induced to form Cdk5/P25 complexes, hyperactive Cdk5 activity, hyperphosphorylation of tau, and neuronal apoptosis. To determine whether P5 will inhibit endogenous tau phosphorylation induced by Aβ treatment in cortical neurons, 7 day old cortical neurons, infected with empty vector (EV) or with P5 were treated with Aβ for 6 hours, lysed and prepared for Cdk5 immunoprecipitation and kinase assay. Aβ treatment causes an approximate 3-fold increase in endogenous Cdk5 activity as visualized by histone H1 phosphorylation (FIG. 4A, panel 5, lane 2; FIG. 4B).\n; FIG. 4D). […] Tau antibodies p-Ser404, PHF antibody AT180 (recognizes p-Thr231) and p-Ser422 antibodies were used to observe whether P5 affects other tau phosphorylation residues (FIGS. 4E, 4F). […]. Tau 5 recognizes total tau, nonphosphorylated as well as phosphorylated."}, "cleaved caspase-3": {"system": "cleaved caspase-3", "assay": "Cleaved caspase-3 Western blot in Aβ-treated cortical neurons", "assay_type": "cell-based, rat", "settings": "Aβ 6 h; P5 infection or roscovitine", "experimental": "as §1\nTo determine whether P5 inhibited neuronal apoptosis induced by Aβ, primary cortical neurons (5 days in culture (DIC)) were transfected with P5-GFP using Lipofectamine 2000. After 24 hours, cells were exposed to Aβ for 6 hours. The neurons were fixed and subjected to TUNEL staining, while P5 was visualized by (green fluorescent protein) GFP. […] The data are quantified in FIG. 5B. […] The data are quantified in FIG. 5D."}, "Cdk5/P25 [1]": {"target": "T1, Cdk5/P25 (Homo sapiens, UniProt Q00535)", "T1 sequence (Q00535 whole entry, species assumed)": "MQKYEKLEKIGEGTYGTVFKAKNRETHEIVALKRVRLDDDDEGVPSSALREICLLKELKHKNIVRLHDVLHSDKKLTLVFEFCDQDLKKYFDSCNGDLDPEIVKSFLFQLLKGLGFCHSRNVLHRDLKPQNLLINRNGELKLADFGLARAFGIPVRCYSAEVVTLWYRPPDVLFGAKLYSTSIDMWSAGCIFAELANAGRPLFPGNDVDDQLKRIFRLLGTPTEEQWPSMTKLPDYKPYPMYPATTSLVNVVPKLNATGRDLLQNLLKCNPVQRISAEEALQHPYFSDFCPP", "assay": "In vitro kinase (pad) assay of active Cdk5/P25 with histone H1 as substrate", "assay_type": "biochemical", "settings": "in vitro kinase assay, histone H1, FIG. 1", "experimental": "Kinase assays were performed as previously described (Veeranna, et al., J Neurosci 18(11), 4008-4021, 1998). Briefly, 7 days in culture (7 DIC) primary rat cortical neurons were infected with P25, P35, Cdk5 wild-type, dominant negative-Cdk5 and P5 using the lentiviral gene delivery as described earlier. Cdk5 was immunoprecipitated using the polyclonal C8 antibody overnight at 4° C. and immunoglobulin isolated using Protein A sepharose beads for 2 hours at 4° C. Immunoprecipitates were washed three times with lysis buffer and then once with 1× kinase buffer containing 20 mM Tris-Cl pH 7.4, 1 mM EDTA, 1 mM EGTA, 10 mM MgCl2, 10 mM sodium fluoride and 1 mM sodium orthovanadate. Endogenous Cdks were immunoprecipitated from HEK 293 cells using their respective antibodies and treated as above. Kinase assays were performed in the same buffer containing 1 mM DTT, 0.1 mM ATP and 0.185 MBq [γ-32P] ATP with 20 μg of histone H1 as the substrate. Phosphorylation was performed in a final volume of […] incubated at 30° C. for 60 minutes, stopped by the addition of 10% SDS sample buffer and heating at 95° C. for 5 minutes. Samples were separated by SDS-PAGE, gels were stained with Coomassie, destained, dried and exposed to autoradiography. In pad assays, 25 μl aliquots of the incubation mixture were placed on a Whatman p80 paper square, washed and dried and placed in a scintillation vial for counting.\nThese are GST-P1 (E211-A277 of SEQ ID NO: 16), 67 amino acid residues; GST-P2 (M237-A277), 41 residues; GST-P3 (E221-L267 of SEQ ID NO: 16), 47 residues; GST-P4 (E221-L249 of SEQ ID NO: 16), 29 residues and GST-P5 (K254-A277 of SEQ ID NO: 16) 24 residues. Each was incubated with active Cdk5/P25 in a kinase assay in vitro. […] FIG. 10 provides a comparison of P5 and CIP, relative to P35.\nIn a dose-dependent kinase assay the effective inhibitory concentration of P5 for both the Cdk5/P25 and Cdk5/P35 complexes was evaluated. His-P5 peptide was added at different concentrations to the in vitro assay containing 100 μM [γ32-P] ATP and histone H1. Inhibition increased progressively with increasing P5 concentration in both complexes (Compare FIGS. 2A, 2B with 2C, 2D).\nP5, a 24 amino acid peptide derived from Cdk5 regulator p35, was modified by conjugating it with TAT PTD at the C-terminal end and with FITC (using a GGG linker) at the N-terminus to produce a fluorescent (FITC-labeled) TFP5 (SEQ ID NO: 2) peptide. In a dose-dependent kinase assay the effective inhibitory concentration of TFP5 for both the Cdk5/P25 and Cdk5/P35 complexes was evaluated. His-P5 peptide was added at different concentrations to the in vitro assay containing 100 μM [γ32-P] ATP and histone H1. […] Data represent means of four independent experiments with error bars representing SEM (*p≦0.05, **p≦0.001)."}, "[2]": {"assay": "Toxicity of ip TFP5 in mice", "assay_type": "in vivo, mouse", "settings": "ip TFP5 (0.2 mM; or 10 weeks in three AD mice)"}, "Cdk5/P25 [3]": {"target": "T1, Cdk5/P25", "settings": "earlier studies; cited from earlier work"}, "Cdk5/P25 [4]": {"target": "T1, Cdk5/P25", "settings": "earlier studies, cited from earlier work"}},
  "note": "Entries after “also recorded” stand apart in the source; their conditions may differ. Peptide text beside a SMILES is read from it. * marks the point of attachment. FITC = O=C1OC2(c3ccc(O)cc3Oc3cc(O)ccc32)c2ccc(NC(=S)*)cc21",
  "data": [
    {"compound": "CC[C@H](CO)Nc1nc(NCc2ccccc2)c2ncn(C(C)C)c2n1", "note": "[roscovitine, reference compound]", "values": [
      {"measurement": "Aβ-induced tau phosphorylation at Ser422", "setting": "tau phosphorylation", "result": "significantly inhibits tau phosphorylation at Ser422 site"},
      {"measurement": "Aβ-induced tau phosphorylation detected by AT8 and p-Ser199/202 antibodies", "setting": "tau phosphorylation", "result": "baseline levels of tau phosphorylation; also recorded: significantly inhibited"},
      {"measurement": "Cleaved caspase-3 expression", "setting": "cleaved caspase-3", "result": "reduced levels of cleaved caspase-3 comparable to that seen with P5 infection"}
    ]},
    {"compound": "P3: 47 residue peptide derived from CIP, E221-L267 of SEQ ID NO: 16 (P35)", "values": [
      {"measurement": "Inhibition of Cdk5/P25 activity, comparison among peptides and CIP", "setting": "Cdk5/P25 [1]", "result": "more effective inhibitors of Cdk5/P25 activity than CIP"}
    ]},
    {"compound": "CC[C@H](C)[C@H](NC(=O)[C@H](CCC(N)=O)NC(=O)[C@H](CC(C)C)NC(=O)[C@H](CCSC)NC(=O)[C@H](CCCCN)NC(=O)[C@H](CO)NC(=O)[C@H](CO)NC(=O)[C@H](CCSC)NC(=O)[C@H](CC(C)C)NC(=O)[C@H](CC(N)=O)NC(=O)[C@@H](NC(=O)[C@@H](NC(=O)[C@H](CO)NC(=O)[C@H](CC(C)C)NC(=O)[C@H](CS)NC(=O)[C@H](CCCNC(=N)N)NC(=O)[C@H](CC(=O)O)NC(=O)[C@H](Cc1c[nH]c2ccccc12)NC(=O)[C@H](Cc1ccccc1)NC(=O)[C@H](C)NC(=O)[C@H](CCC(=O)O)NC(=O)[C@H](CCCCN)NC(=O)CNC(=O)CNC(=O)CNC(=S)Nc1ccc2c(c1)C(=O)OC21c2ccc(O)cc2Oc2cc(O)ccc21)C(C)C)[C@@H](C)CC)C(=O)N[C@@H](CC(N)=O)C(=O)N[C@@H](C)C(=O)N[C@@H](Cc1ccc(O)cc1)C(=O)N[C@@H](C)C(=O)N[C@@H](CCCNC(=N)N)C(=O)N[C@@H](C)C(=O)N[C@@H](C)C(=O)N[C@@H](CCCNC(=N)N)C(=O)N[C@@H](CCCNC(=N)N)C(=O)N[C@@H](C)C(=O)N[C@@H](C)C(=O)N[C@@H](CCCNC(=N)N)C(=O)N[C@@H](CCCNC(=N)N)C(=O)O", "note": "[TFP5] ({FITC}-GGGKEAFWDRCLSVINLMSSKMLQINAYARAARRAARR-OH)", "values": [
      {"measurement": "Toxicity in vivo", "setting": "[2]", "result": "without any toxicity; also recorded: without resulting in cell death; also recorded: no toxic effects were observed"}
    ]},
    {"compound": "CIP: 125-amino acid truncated peptide from P35 (residues 154-279 of SEQ ID NO: 16), inhibitor of Cdk5/P25", "values": [
      {"measurement": "Inhibition of Cdk5/P25 activity by CIP", "setting": "Cdk5/P25 [3]", "result": "highly effective and specific inhibitor of Cdk5/P25 activity"},
      {"measurement": "Tau hyperphosphorylation", "setting": "Cdk5/P25 [4]", "result": "reduces tau hyperphosphorylation"},
      {"measurement": "Apoptosis induced by Cdk5/P25", "setting": "Cdk5/P25 [4]; transfected HEK cells and neurons", "result": "protects transfected HEK cells and neurons from apoptosis"}
    ]}
  ]
}
